# The source made the active and inactive calls. The calls are words filed in the database; no cut-off is given here.
# Tests used:
# [1] = biological target: T1, Sigma intracellular receptor 2 (Rattus norvegicus, UniProt Q5U3Y7); assay: Displacement of [3H]-di-o-tolylguanidine from sigma2 receptor in rat liver membrane by solid scintillation counting method; type: cell membranes
# T1 sequence (Q5U3Y7 whole entry): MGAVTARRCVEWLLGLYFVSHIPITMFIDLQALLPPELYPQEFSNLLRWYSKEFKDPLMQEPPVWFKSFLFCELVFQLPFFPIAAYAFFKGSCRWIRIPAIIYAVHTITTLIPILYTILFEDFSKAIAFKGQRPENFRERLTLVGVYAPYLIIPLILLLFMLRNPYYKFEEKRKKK
# [2] = biological target: Glutamate [NMDA] receptor (Homo sapiens) (UniProt Q05586+Q12879+Q13224+O15399+O60391+Q14957+Q8TCU5); assay: Displacement of [3H]-(+)-MK801 from PCP binding site of NMDA receptor (unknown origin); type: protein-complex assay; settings: dose 1.0 µM
# [3] = biological target: Sigma non-opioid intracellular receptor 1 (Cavia porcellus, UniProt Q60492)
# Mus musculus = assay: Antiallodynic activity in CD-1 mouse assessed as analgesia at 40 mg/kg, sc administered 30 mins prior to capsaicin stimulation and measured after 15 mins by von Frey test (reference value: 97.3 %); type: functional; settings: time 45 min, 0.75 h
# [4] = biological target: Sigma non-opioid intracellular receptor 1 (Cavia porcellus) (UniProt Q60492); assay: Displacement of [3H]-(+)-pentazocine from sigma1 receptor in guinea pig brain membrane at 1 uM measured after 120 mins by solid scintillation counting method; type: cell membranes
# [5] = biological target: Sigma intracellular receptor 2 (Rattus norvegicus) (UniProt Q5U3Y7); assay: Displacement of [3H]-di-o-tolylguanidine from sigma2 receptor in rat liver membrane at 1 uM by solid scintillation counting method; type: cell membranes
# Cytochrome P450 3A4 = Cytochrome P450 3A4 (Homo sapiens, UniProt P08684); assay: Inhibition of CYP3A4 (unknown origin) at 1 uM; type: ADME
# Cytochrome P450 2C9 = Cytochrome P450 2C9 (Homo sapiens, UniProt P11712); assay: Inhibition of CYP2C9 (unknown origin) at 1 uM; type: ADME
# Cytochrome P450 1A2 = biological target: T2, Cytochrome P450 1A2 (Homo sapiens, UniProt P05177); assay: Inhibition of CYP1A2 (unknown origin) at 1 uM; type: ADME
# T2 sequence (P05177 whole entry): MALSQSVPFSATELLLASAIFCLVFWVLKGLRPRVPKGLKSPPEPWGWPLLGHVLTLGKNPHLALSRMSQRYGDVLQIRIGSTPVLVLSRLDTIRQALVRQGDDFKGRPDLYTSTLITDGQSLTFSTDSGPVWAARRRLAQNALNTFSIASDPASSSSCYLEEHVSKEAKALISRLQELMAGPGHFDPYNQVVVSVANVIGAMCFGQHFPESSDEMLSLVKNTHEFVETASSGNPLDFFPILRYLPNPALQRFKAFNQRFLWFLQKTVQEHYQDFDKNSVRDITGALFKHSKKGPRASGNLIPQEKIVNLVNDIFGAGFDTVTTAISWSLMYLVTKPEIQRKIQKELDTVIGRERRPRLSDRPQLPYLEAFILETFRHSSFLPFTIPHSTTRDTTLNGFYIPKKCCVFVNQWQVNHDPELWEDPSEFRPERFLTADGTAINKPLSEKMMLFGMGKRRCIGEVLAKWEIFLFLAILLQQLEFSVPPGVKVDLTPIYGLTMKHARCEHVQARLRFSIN
# [6] = biological target: T3, 5-hydroxytryptamine receptor 1A (Homo sapiens) (UniProt P08908); assay: Binding affinity to human 5HT1A receptor
# T3 sequence (whole entry): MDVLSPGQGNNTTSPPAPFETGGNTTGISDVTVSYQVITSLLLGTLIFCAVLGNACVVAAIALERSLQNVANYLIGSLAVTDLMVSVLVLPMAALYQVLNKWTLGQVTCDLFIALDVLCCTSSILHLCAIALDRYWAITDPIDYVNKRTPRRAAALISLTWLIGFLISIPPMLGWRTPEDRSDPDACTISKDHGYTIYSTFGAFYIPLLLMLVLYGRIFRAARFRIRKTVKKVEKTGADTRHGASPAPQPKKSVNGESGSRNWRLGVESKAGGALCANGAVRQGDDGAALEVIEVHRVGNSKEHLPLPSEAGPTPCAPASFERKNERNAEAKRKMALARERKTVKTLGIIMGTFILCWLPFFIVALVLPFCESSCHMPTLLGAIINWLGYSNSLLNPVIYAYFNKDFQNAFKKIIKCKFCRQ
# [7] = biological target: Sodium-dependent noradrenaline transporter (Homo sapiens) (UniProt P23975); assay: Inhibition of noradrenaline transporter (unknown origin)
# Cytochrome P450 2C19 = Cytochrome P450 2C19 (Homo sapiens, UniProt P33261); assay: Inhibition of CYP2C19 (unknown origin) at 1 uM; type: ADME
# [8] = biological target: 5-hydroxytryptamine receptor 2B (Homo sapiens) (UniProt P41595); assay: Binding affinity to human 5HT2B receptor
# [9] = biological target: Mu-type opioid receptor (Homo sapiens) (UniProt P35372); assay: Binding affinity to human mu opioid receptor
# [10] = biological target: T4, Alpha-2A adrenergic receptor (Homo sapiens) (UniProt P08913); assay: Binding affinity to human alpha2A adrenergic receptor
# T4 sequence (whole entry): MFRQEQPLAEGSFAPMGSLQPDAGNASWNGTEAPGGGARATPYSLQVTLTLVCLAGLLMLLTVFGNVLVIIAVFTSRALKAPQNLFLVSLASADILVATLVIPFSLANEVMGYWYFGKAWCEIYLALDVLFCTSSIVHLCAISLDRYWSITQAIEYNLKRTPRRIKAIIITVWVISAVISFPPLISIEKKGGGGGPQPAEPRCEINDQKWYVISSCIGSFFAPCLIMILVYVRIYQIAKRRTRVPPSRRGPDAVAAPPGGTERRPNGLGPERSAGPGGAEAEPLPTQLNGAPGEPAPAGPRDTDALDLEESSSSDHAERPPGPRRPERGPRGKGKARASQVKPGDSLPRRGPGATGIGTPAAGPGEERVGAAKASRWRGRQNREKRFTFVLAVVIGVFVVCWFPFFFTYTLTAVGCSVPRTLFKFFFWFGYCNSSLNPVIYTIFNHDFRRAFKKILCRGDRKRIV
# DU-145 = assay: Antiproliferative activity against androgen-negative human DU145 cells assessed as inhibition of cell growth at 10 uM measured after 72 hrs by SRB assay; type: functional, cell-based
# [11] = biological target: Delta-type opioid receptor (Homo sapiens) (UniProt P41143); assay: Binding affinity to human delta opioid receptor
# [12] = biological target: Sodium-dependent dopamine transporter (Homo sapiens) (UniProt Q01959); assay: Inhibition of dopamine transporter (unknown origin)
# [13] = biological target: Adrenergic receptor alpha-1 (Homo sapiens) (UniProt P35348+P25100+P35368); assay: Binding affinity to human alpha1 adrenergic receptor; type: protein assay
# [14] = biological target: Kappa-type opioid receptor (Homo sapiens) (UniProt P41145); assay: Binding affinity to human kappa opioid receptor
# [15] = biological target: Sodium-dependent serotonin transporter (Homo sapiens) (UniProt P31645); assay: Inhibition of serotonin transporter (unknown origin)
# [16] = Selectivity ratio of Ki for sigma2 receptor in rat liver membrane to Ki for sigma1 receptor in guinea pig brain membrane; type: cell membranes
# Cytochrome P450 2C19, sequence (P33261 whole entry): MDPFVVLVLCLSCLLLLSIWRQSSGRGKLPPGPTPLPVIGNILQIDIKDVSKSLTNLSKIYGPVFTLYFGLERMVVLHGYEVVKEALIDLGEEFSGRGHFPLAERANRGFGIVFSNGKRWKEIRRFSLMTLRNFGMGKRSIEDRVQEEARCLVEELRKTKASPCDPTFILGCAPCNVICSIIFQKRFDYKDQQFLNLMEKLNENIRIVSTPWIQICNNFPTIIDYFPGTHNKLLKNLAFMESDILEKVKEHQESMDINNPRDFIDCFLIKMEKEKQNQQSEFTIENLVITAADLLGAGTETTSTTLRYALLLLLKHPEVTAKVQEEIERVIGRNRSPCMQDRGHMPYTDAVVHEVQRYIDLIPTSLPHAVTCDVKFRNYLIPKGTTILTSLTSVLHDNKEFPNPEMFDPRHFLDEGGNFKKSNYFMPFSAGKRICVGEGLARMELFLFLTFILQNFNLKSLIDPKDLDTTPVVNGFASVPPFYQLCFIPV
# Mu-type opioid receptor (Homo sapiens), sequence (P35372 whole entry): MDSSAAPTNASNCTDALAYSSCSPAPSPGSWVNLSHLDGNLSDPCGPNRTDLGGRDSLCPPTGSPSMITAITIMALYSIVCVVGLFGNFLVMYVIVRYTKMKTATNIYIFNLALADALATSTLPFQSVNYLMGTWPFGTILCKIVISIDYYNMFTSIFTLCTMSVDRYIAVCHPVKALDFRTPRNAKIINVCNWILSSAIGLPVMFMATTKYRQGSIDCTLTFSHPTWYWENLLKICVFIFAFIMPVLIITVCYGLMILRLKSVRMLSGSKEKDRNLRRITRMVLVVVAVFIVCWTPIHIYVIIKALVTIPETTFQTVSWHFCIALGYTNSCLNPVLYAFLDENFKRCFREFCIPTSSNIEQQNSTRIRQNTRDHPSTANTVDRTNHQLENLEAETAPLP
# 5-hydroxytryptamine receptor 2B (Homo sapiens), sequence (P41595 whole entry): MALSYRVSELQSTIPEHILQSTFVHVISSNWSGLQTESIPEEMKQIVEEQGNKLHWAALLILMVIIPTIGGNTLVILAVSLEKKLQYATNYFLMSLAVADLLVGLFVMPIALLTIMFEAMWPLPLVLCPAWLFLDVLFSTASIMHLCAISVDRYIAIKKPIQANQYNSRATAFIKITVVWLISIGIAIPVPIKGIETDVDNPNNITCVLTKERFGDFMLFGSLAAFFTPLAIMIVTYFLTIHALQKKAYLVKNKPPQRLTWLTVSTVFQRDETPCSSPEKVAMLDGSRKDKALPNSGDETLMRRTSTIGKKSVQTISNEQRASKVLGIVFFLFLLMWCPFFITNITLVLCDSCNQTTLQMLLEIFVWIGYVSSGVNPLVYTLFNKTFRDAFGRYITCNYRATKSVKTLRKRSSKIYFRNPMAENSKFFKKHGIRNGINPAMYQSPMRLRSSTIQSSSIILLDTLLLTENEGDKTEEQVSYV
# Delta-type opioid receptor (Homo sapiens), sequence (P41143 whole entry): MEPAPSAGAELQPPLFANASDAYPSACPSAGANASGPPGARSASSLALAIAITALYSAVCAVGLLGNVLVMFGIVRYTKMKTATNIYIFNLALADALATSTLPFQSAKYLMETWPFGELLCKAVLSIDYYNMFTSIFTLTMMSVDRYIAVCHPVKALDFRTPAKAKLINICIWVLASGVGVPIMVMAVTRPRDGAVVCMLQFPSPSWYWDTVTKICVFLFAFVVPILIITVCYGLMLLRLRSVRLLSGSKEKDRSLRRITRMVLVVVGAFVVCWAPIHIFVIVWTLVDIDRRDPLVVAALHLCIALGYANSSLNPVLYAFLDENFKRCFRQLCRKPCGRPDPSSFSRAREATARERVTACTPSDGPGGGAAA
# Sodium-dependent serotonin transporter (Homo sapiens), sequence (P31645 whole entry, looked up): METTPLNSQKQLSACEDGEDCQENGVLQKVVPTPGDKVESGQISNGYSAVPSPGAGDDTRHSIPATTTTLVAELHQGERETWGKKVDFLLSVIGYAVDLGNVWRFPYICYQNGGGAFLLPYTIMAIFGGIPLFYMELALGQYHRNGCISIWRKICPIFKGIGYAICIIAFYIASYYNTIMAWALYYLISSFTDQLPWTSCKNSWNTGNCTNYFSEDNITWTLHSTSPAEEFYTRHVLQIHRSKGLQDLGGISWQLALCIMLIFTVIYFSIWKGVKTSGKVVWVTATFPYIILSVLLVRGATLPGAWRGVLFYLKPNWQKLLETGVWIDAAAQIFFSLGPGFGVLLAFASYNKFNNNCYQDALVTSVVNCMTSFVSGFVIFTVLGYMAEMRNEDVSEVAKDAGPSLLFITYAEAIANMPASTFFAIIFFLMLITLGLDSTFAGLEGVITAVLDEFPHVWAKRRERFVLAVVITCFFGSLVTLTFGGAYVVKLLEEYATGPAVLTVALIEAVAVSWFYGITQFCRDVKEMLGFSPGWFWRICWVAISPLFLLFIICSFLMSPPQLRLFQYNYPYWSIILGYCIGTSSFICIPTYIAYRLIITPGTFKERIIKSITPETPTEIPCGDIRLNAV
# Cytochrome P450 3A4, sequence (P08684 whole entry): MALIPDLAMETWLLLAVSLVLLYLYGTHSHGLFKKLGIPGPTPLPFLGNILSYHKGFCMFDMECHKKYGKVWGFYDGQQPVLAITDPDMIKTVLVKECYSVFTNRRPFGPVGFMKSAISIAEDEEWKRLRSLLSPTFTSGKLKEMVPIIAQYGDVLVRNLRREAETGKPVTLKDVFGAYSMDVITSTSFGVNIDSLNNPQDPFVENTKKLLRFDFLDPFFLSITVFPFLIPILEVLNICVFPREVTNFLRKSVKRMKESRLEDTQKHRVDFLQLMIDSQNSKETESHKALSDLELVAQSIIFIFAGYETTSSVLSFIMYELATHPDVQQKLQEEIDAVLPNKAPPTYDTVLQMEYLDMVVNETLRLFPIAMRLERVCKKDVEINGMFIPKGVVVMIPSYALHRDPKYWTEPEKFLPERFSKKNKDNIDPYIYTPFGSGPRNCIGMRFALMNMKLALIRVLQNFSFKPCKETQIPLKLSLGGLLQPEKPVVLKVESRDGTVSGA
# Kappa-type opioid receptor (Homo sapiens), sequence (P41145 whole entry): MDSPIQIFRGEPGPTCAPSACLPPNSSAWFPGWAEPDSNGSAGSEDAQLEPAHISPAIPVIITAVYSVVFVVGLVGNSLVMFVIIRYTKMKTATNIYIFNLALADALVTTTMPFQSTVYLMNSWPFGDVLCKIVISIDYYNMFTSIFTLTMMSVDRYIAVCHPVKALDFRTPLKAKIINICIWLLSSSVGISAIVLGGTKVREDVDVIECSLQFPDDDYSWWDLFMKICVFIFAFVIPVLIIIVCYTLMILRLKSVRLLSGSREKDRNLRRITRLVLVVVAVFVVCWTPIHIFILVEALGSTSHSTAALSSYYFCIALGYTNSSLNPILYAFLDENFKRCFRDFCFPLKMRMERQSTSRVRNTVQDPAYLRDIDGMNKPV
# Sodium-dependent dopamine transporter (Homo sapiens), sequence (Q01959 whole entry): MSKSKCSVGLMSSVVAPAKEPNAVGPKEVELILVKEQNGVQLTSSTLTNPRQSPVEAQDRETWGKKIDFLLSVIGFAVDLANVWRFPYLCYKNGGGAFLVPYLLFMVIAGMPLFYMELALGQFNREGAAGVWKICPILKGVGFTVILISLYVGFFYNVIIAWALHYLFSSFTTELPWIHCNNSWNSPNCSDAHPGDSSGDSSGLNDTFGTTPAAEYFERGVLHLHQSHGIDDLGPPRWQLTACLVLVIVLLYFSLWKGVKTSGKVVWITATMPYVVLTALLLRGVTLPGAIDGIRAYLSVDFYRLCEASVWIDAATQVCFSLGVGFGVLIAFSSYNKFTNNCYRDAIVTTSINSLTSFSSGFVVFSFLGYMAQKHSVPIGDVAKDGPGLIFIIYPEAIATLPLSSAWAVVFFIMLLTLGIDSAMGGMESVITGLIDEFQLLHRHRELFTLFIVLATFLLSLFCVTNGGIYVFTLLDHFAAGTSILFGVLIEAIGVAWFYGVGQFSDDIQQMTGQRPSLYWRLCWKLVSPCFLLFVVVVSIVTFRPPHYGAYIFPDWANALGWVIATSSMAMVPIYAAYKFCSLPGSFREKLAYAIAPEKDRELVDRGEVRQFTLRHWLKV
# Sodium-dependent noradrenaline transporter (Homo sapiens), sequence (P23975 whole entry): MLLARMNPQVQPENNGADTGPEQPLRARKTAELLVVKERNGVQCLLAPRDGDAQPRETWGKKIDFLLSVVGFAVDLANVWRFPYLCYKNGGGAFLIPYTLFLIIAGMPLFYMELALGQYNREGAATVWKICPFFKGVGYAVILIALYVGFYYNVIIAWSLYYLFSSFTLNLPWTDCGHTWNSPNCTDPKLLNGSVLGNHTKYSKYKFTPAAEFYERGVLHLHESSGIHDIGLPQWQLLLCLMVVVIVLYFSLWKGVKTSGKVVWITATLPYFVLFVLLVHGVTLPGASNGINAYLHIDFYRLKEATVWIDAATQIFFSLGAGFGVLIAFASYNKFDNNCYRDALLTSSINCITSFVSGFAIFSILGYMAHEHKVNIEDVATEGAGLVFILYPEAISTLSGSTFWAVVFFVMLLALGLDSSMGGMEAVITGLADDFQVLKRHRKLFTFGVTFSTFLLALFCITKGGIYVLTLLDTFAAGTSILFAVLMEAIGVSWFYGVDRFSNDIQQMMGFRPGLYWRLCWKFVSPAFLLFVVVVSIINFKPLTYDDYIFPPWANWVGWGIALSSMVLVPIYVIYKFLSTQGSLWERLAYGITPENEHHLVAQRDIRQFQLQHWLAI
# Cytochrome P450 2C9, sequence (P11712 whole entry): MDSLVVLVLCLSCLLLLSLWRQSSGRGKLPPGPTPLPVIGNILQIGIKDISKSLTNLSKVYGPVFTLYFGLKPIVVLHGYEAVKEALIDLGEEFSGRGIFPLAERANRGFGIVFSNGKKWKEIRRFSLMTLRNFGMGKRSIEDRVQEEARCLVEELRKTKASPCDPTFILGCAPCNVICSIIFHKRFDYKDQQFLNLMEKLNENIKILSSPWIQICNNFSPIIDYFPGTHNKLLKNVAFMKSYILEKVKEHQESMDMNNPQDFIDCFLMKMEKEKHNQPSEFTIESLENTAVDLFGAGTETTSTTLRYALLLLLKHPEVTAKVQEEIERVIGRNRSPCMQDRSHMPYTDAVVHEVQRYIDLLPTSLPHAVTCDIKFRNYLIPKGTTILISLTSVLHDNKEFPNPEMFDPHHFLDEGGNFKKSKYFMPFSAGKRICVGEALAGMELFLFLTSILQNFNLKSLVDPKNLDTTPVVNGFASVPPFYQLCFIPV
structure (smiles),measurement,setting,value
c1ccc(CCCCNCC[C@@H]2CCC[C@H](c3ccccc3)O2)cc1,Ki,[1],234 nM
same,inhibition,[2],43%
same,Ki,[3],15 nM
Cc1cc(OCCN2CCOCC2)nn1-c1ccc2ccccc2c1,Activity,Mus musculus,97%
c1ccc([C@H]2CCC[C@@H](CCN3CCN(c4ccccc4)CC3)O2)cc1,Ki,[1],131 nM
same,inhibition,[2],7%
same,Ki,[3],21 nM
NCC[C@@H]1CCC[C@H](c2ccccc2)O1,inhibition,[4],9%
same,inhibition,[2],14%
same,inhibition,[5],5%
CN(C)CC[C@H]1CCC[C@@H](c2ccccc2)O1,Ki,[1],4000 nM
same,inhibition,[2],31%
same,Ki,[3],217 nM
c1ccc([C@H]2CCC[C@@H](CCNCC3CCCCC3)O2)cc1,inhibition (INH),Cytochrome P450 3A4,Not Active
same,Activity,Mus musculus,67%
same,inhibition (INH),Cytochrome P450 2C9,Not Active
same,inhibition (INH),Cytochrome P450 1A2,Not Active
same,Activity,[6],inactive
same,inhibition,[7],inactive
same,inhibition (INH),Cytochrome P450 2C19,Not Active
same,Activity,[8],inactive
same,Activity,[9],inactive
same,Activity,[10],inactive
same,Activity,DU-145,Active
same,Ki,[1],57 nM
same,Activity,[11],inactive
same,inhibition,[2],33%
same,inhibition,[12],inactive
same,Activity,[13],inactive
same,Activity,[14],inactive
same,inhibition,[15],inactive
same,Ki,[3],0.95 nM
c1ccc([C@H]2CCC[C@@H](CCN3CCCC3)O2)cc1,Ki,[1],115 nM
same,Ki,[3],60 nM
c1ccc([C@@H]2CCC[C@H](CCN3CCCC3)O2)cc1,Ki,[1],170 nM
same,Ki,[3],31 nM
c1ccc(CNCC[C@@H]2CCC[C@H](c3ccccc3)O2)cc1,inhibition (INH),Cytochrome P450 3A4,Not Active
same,Activity,Mus musculus,21%
same,inhibition (INH),Cytochrome P450 2C9,Not Active
same,inhibition (INH),Cytochrome P450 1A2,Not Active
same,Activity,[6],inactive
same,inhibition,[7],inactive
same,inhibition (INH),Cytochrome P450 2C19,Not Active
same,Ratio Ki,[16],236
same,Activity,[8],inactive
same,Activity,[9],inactive
same,Activity,[10],inactive
same,Activity,DU-145,Active
same,Ki,[1],378 nM
same,Activity,[11],inactive
same,inhibition,[12],inactive
same,Activity,[13],inactive
same,Activity,[14],inactive
same,inhibition,[15],inactive
same,Ki,[3],1.6 nM
c1ccc([C@@H]2CCC[C@H](CCN3CCN(c4ccccc4)CC3)O2)cc1,Ki,[1],161 nM
same,Ki,[3],57 nM
c1ccc([C@@H]2CCC[C@H](CCNCC3CCCCC3)O2)cc1,inhibition (INH),Cytochrome P450 3A4,Not Active
same,Activity,Mus musculus,53%
same,inhibition (INH),Cytochrome P450 2C9,Not Active
same,inhibition (INH),Cytochrome P450 1A2,Not Active
same,Activity,[6],inactive
same,inhibition,[7],inactive
same,inhibition (INH),Cytochrome P450 2C19,Not Active
same,Activity,[8],inactive
same,Activity,[9],inactive
same,Activity,[10],inactive
same,Activity,DU-145,Active
same,Ki,[1],36 nM
same,Activity,[11],inactive
same,inhibition,[2],7%
same,inhibition,[12],inactive
same,Activity,[13],inactive
same,Activity,[14],inactive
same,inhibition,[15],inactive
same,Ki,[3],2.4 nM
NCC[C@H]1CCC[C@@H](c2ccccc2)O1,inhibition,[4],4%
same,inhibition,[2],43%
same,inhibition,[5],10%
c1ccc(CCCCNCC[C@H]2CCC[C@@H](c3ccccc3)O2)cc1,Ki,[1],377 nM
same,inhibition,[2],42%
same,Ki,[3],29 nM
CN(C)CC[C@@H]1CCC[C@H](c2ccccc2)O1,Ki,[1],2300 nM
same,inhibition,[2],37%
same,Ki,[3],465 nM
c1ccc(CNCC[C@H]2CCC[C@@H](c3ccccc3)O2)cc1,inhibition (INH),Cytochrome P450 3A4,Not Active
same,Activity,Mus musculus,55%
same,inhibition (INH),Cytochrome P450 2C9,Not Active
same,inhibition (INH),Cytochrome P450 1A2,Not Active
same,Activity,[6],inactive
same,inhibition,[7],inactive
same,inhibition (INH),Cytochrome P450 2C19,Not Active
same,Activity,[8],inactive
same,Activity,[9],inactive
same,Activity,[10],inactive
same,Activity,DU-145,Active
same,Ki,[1],426 nM
same,Activity,[11],inactive
same,inhibition,[12],inactive
same,Activity,[13],inactive
same,Activity,[14],inactive
same,inhibition,[15],inactive
same,Ki,[3],5.4 nM

# Reference: ChEMBL document CHEMBL4814072, “Chemoenzymatic synthesis of 2,6-disubstituted tetrahydropyrans with high σ1 receptor affinity, antitumor and analgesic activity” (Eur J Med Chem, 2021)
